Results on two compounds are retold here after US6780867B2, “Thienopyrimidines” (Merck Patent GmbH, priority 2000, dated 2004).

Counter-ions that a name gives are not always drawn.

The melting point is the temperature of the solid-liquid transition. Turning to `COc1ccc(CNc2nc(COCC(=O)O)nc3sc4c(c23)CCCC4)cc1Cl` (as salt: salt) [Example 6, [4-(3-chloro-4-methoxybenzylamino)-5,6,7,8-tetrahydrobenzo[4,5]thieno-[2,3-d]pyrimidin-2-ylmethoxy]acetic acid], the melting point was 136 to 137 °C.

For `CCOC(=O)CSCc1nc(NCc2ccc(OC)c(Cl)c2)c2c3c(sc2n1)CCCC3` [Example 5, ethyl [4-(3-chloro-4-methoxybenzylamino)-5,6,7,8-tetrahydrobenzo[4,5]thieno-[2,3-d]pyrimidin-2-ylmethylsulfanyl]acetate], the melting point was in the range of 158 to 160 °C.
